Reference: patent publication US11001573B2, “Citric acid derivative” (ADABIO CO., LTD., priority 2015, dated 2021)

Tested on: Wistar male rats given galactosamine hydrochloride
Experiment: Test on liver dysfunction suppression effect (galactosamine hydrochloride-induced liver disorder, plasma AST/ALT)
Type: in vivo, rat
Settings: oral 7 days, 6 g/kg of 6 mg/mL solution, galactosamine hydrochloride 750 mg/kg i.p. on day 7, blood on day 9, vs control administration group (p<0.05, Dunnett)
Procedure: (Preparation of Administration Products for Animal Test)
(1) Preparation of Compound I Administration Product
An 8 N sodium hydroxide aqueous solution was added dropwise to 100 mL of roughly purified solution I in small amounts, while checking the pH with a pH meter, to adjust the acid-base property of the solution to pH 6.5. Further, the mixture was diluted with a solvent.
(2) Preparation of Compound V Administration Product
An 8 N sodium hydroxide aqueous solution was added dropwise to 100 mL of roughly purified solution I in small amounts, while checking the pH with a pH meter, to adjust the acid-base property of the solution to pH 8.6, followed by heating at 121° C. for 30 minutes, and further the mixture was diluted with a solvent (the pH of the solution after the heating changed to about pH 6.2 due to acid formation by hydrolysis reaction).
(Test on Liver Dysfunction Suppression Effect)
The aforementioned administration products (1) and (2) were dissolved in a solvent composed of oligosaccharide, cyclic oligosaccharide, and D-sorbitol to give a solution, and the final concentration of compounds I and V dissolved in the solution administered was adjusted to 6 mg/mL. The solution in an amount of 6 g/kg as calculated from specific gravity of the solution was orally administered to 8 week-old Wistar male rats (CHARLES RIVER LABORATORIES JAPAN, INC.) for 7 days with free access to commercially available solid feed and tap water. The solvent free from the aforementioned compounds (1) and (2) in an amount of 6 g/kg was orally administered to the control animals for 7 days. On the 7th day after the start of administration, a 750 mg/kg dose of galactosamine hydrochloride (Wako Pure Chemical Industries, Ltd.) was intraperitoneally administered to each of the animals to which the control and compounds I and V were administered, and the abdomen was opened on the 9th day after the start of administration under pentobarbital anesthesia (50 mg/kg), to collect heparinized blood from the abdominal aorta. The obtained blood was separated into blood plasma, and the AST and ALT values thereof were measured by the JSCC standardization-corresponding method. In FIG. 14, the results are shown as average+standard deviation (the number of animals of each group was 20). Symbol * represents a significant difference (p<0.05) from the control group, which was tested by the Dunnett's test after the one-way analysis of variance.

Compound | ALT value in blood plasma | AST value in blood plasma
O=C(O)CC(C(=O)O)N1C(=O)CC(O)(CC(=O)O)C1=O (stereo not shown) [compound I] | significantly low | significantly low
O=C(O)CC(NC(=O)CC(O)(CC(=O)O)C(=O)O)C(=O)O (stereo not shown) [compound V] | significantly low | significantly low
